For data set [1], the system named is GFP translation (Escherichia coli S30 extracts). Kind of data set: Coupled in vitro transcription-translation inhibition assay (GFP fluorescence). In kind it is biochemical. As to conditions: for inhibitory effect on coupled in vitro transcription-translation (in words): peptide 300 μM to 2 mM, GFP fluorescence 0 min to 2 h, 37° C. As for the experimental part:
Peptides with high frequency in the screening against wild-type h31 were synthesized. The peptides (DIRTQRE (SEQ ID NO: 6), CVRPFAL (SEQ ID NO: 4), FVRPFAL (SEQ ID NO: 7), TLWDLIP (SEQ ID NO: 3) and TYLPWPA (SEQ ID NO: 2)), were synthesized and their sequences were determined from the phage display experiments. The inhibitory effects of these peptides on cellular processes were determined by in vitro coupled transcription-translation inhibition assay. The PURExpress™ in vitro protein synthesis kit # E6800S from New England Biolabs (NEB) was used for this purpose. This kit contains all of the necessary components for the transcription and translation, except for the DNA template. The amounts of reagents from the kit were added according to the NEB manual. We used a DNA template for GFP (pRSETEmGFP plasmid) at a concentration of 10 μg/ml in a 15 μl of reaction volume. Different concentrations of peptides were added, ranging from 300 μM to 2 mM. The DNA template was added only after mixing of the peptides or streptomycin so that they can bind to their target region. For the control, streptomycin was added at a final concentration of 300 μM. The reaction was incubated in 384-well, Costar, clear-well, black plates and in situ incubated at 37° C. in the fluorometer. The amount of GFP translation was monitored at different intervals of time from 0 min to 2 h by fluorescence (excitation at 487 nm, emission at 509 nm) using a Gemini XPS microplate spectrofluorometer, (Molecular Devices).
A cell-free translation assay was used to test the inhibitory effects of the peptides on protein synthesis. The pRSETEmGFP plasmid that was used as template has an EmGFP gene under control of the T7 promoter (FIG. 48). Upon transcription with T7 polymerase, EmGFP mRNA was formed and undergoes translation by ribosomes to produce the green fluorescent protein (GFP). The degree of inhibition on transcription and translation due to the presence of peptide could be determined by measuring the level of GFP fluorescence. Escherichia coli S30 extracts were used, which contained all of the necessary factors and supplements for translation. The rate of GFP translation in the presence or absence of peptide was measured at different time intervals.

The nature of data set [2]: UV thermal melting of helix 31 RNA hairpin constructs (van't Hoff analysis). The following applies: for ΔG° 50: standard error est. 3% (±0.2 kcal/mol). In kind it is physicochemical. The protocol:
Thermal melting studies. The absorbance versus temperature profiles were obtained on an Aviv 14DS UV-vis spectrophotometer with a five-cuvette thermoelectric controller. Microcuvettes with two different pathlengths, 0.1 and 0.2 cm (60 and 120 μL volumes, respectively), were employed. Each set of measurements was done in triplicate. The buffer used in each experiment contained 15 mM NaCl, 20 mM sodium cacodylate, and 0.5 mM Na2EDTA (pH 7.0) unless otherwise noted. Each oligomer was dissolved in a specific volume to yield an absorbance reading just below 2.0 in a 0.1 cm pathlength cuvette. The RNA concentrations were determined from the absorbance values (260 nm) at 95° C. The absorbance data were collected at […] from 0 to 95° C. with a constant heating rate of 0.5° C./min. Thermodynamic parameters were obtained from the absorbance versus temperature profiles using the MELTWIN v. 3.5 melting curve program.^1 This program performs a van't Hoff analysis, assuming a two-state model for the transition between a native and a denatured (random coil) structure of a hairpin.
Absorbance versus temperature profiles (melting curves) were obtained at pH 7.0 for all four RNA constructs. They were analyzed in terms of ΔG°37, ΔG°50, ΔH°, ΔS°, and melting temperature (Tm),^1, 2 Representative normalized UV melting curves of the modified RNAs compared to the unmodified RNA, taken in 15 mM NaCl, 20 mM sodium cacodylate, 0.5 mM Na2EDTA (pH 7.0), are shown in FIG. 11.
The curves represent an average of five sets of data at different concentrations of RNA obtained from a five-cuvette thermoelectric controller. The melting curves for the unmodified RNA (ECh31UNMOD, blue line in panels A-C) are compared to those for the modified RNAs (pink lines: (A) ECh31WT, (B) ECh31M2G, and (C) ECh31M5C). All of the melting curves were normalized at 95° C. and absorbance measurements were taken at 260 nm (see materials and methods, section 4.5).
The melting curves are biphasic for all four RNAs (FIG. 12) with transitions at 0 to 35° C. and 40 to 80° C. […] The higher melting transitions were concentration independent, consistent with unimolecular unfolding of the hairpin structure.^3 The corresponding thermodynamic parameters for the four RNAs are given in Table 2. […] The observed order of stability of the RNAs is ECh31UNMOD>ECh31M2G>ECh31M5C>ECh31WT^a A conservative estimate of the standard error for ΔG°50 is 3% (.+−.0.2 kcal/mol)^4
The RNA samples were analyzed as five different dilutions per experiment and UV melts were also performed in triplicate for each construct. AU0-AU4 represent profiles corresponding to different dilutions of each RNA taken in 15 mM NaCl, 20 mM sodium cacodylate, 0.5 mM Na2EDTA at pH 7.0. Experiments in K^+ buffer (15 mM KCl, 20 mM cacodylic acid, 20 mM Tris [basic form], 0.5 mM Na2EDTA, pH 7.0) gave similar results (Table 3, FIG. 13).
Thermal melting studies. Preliminary experiments were performed with the unmodified human analogue (HSh31UNMOD) containing an additional G-C base-pair (denoted by g-c) similar to that of the ECh31UNMOD construct (FIG. 28).
Thermal melting studies on the human unmodified helix 31 containing the altered sequence. The absorbance versus temperature profiles were obtained at pH 7.0 in low salt conditions (35 mM Na^+) for the new analogue of helix 31 (HSh31ECstem) and analyzed in terms of the melting temperature (Tm), Δ°, ΔS° and ΔG°37. The melting curve for HSH31ECSTEM (green color curve) is biphasic with transitions at 0-35 and 45-80° C. (FIG. 37). The higher melting transition is concentration independent, consistent with unimolecular unfolding of a hairpin structure.

The mark [3] stands for this setting: 15 mM NaCl, 20 mM sodium cacodylate, 0.5 mM Na2EDTA, pH 7.0.
[4] abbreviates: Table 2, 15 mM NaCl, 20 mM sodium cacodylate, 0.5 mM Na2EDTA, pH 7.0.
Setting [5] is: Tables 3-5, NaCl buffer (15 mM NaCl, 20 mM sodium cacodylate, 0.5 mM EDTA, pH 7.0).
Where [6] appears, read: KCl buffer (15 mM KCl, 20 mM cacodylic acid, 20 mM Tris, 0.5 mM Na2EDTA, pH 7.0).

Entries after “also recorded” stand apart in the source; their conditions may differ. Marks after values point to notes of the source that are not given here. Strand notation (5' to 3'): a small letter for the sugar, then the base; units joined by * are phosphorothioate-linked, units joined directly phosphodiester-linked; [ ] holds rarer units or linkages, { } end groups; capitals alone tell only the bases. [m2G] = N2-methylguanosine (ribo); [5mC] = 5-methylcytosine; r = 2'-OH (RNA)

Turning to “CVRPFAL [compound 15, 7-mer peptide selected by phage display against helix 31 RNA]”, the “inhibitory effect on coupled in vitro transcription-translation (in words)” value (“inhibitory effect on coupled” below) in data set [1] was “greater inhibitory effects on in vitro protein synthesis than other peptides”; in data set [1] (listed as CVRPFAL), “best inhibitory effects; also recorded: strong inhibitory effects”.

As to “TLWDLIP [compound 14, 7-mer peptide selected by phage display against helix 31 RNA]”, the “inhibitory effect on coupled” value in data set [1] was “greater inhibitory effects on in vitro protein synthesis than other peptides”.

For the molecule “ECh31UNMOD: 18-nt unmodified RNA hairpin representing helix 31 (U960-A975) of E. coli 16S rRNA (GUUCGAUGCAACGCGAAC; unmodified RNA)”, the “ΔG° 50” value in data set [2] (setting [3]) is on record as −0.9^a kcal/mol. Also, in data set [2] (setting [4]), the Tm came out at 57 °C, the “ΔG°37” value is -2.6 ± 0.1 kcal/mol, the “ΔH°” value is -44.1 ± 1.0 kcal/mol and the “ΔS°” value is −133.8 ± 3.0 cal/K · mol. In addition, in data set [2] (setting [5]), the Tm was 57 °C, the “ΔG°37” value was -2.6 ± 0.1 kcal/mol, the “ΔH°” value is -44.1 ± 1.0 kcal/mol and the “ΔS°” value was −133.8 ± 3.0 cal/K · mol.

Take “ECh31M2G: 18-nt helix 31 RNA hairpin of E. coli 16S rRNA with m2G966 (rGrUrUrCrGrArUr[m2G]rCrArArCrGrCrGrArArC)”: in data set [2] (setting [3]), the “ΔG° 50” value was −0.7^a kcal/mol. Further, in data set [2] (setting [4]), the Tm was 56 °C, the “ΔG°37” value was -2.4 ± 0.1 kcal/mol, the “ΔH°” value was -41.9 ± 1.1 kcal/mol and the “ΔS°” value is on record as −127.5 ± 3.2 cal/K · mol.

As to “FVRPFAL [compound 16, 7-mer peptide selected by phage display against helix 31 RNA]”, in data set [1], the “inhibitory effect on coupled” value is recorded as “best inhibitory effects; also recorded: strong inhibitory effects”.

Take “ECh31M5C: 18-nt helix 31 RNA hairpin of E. coli 16S rRNA with m5C967 (GUUCGAUGCAACGCGAAC; RNA, [5mC] at 9, all phosphodiester, methylation of C not given here)”: the “ΔG° 50” value in data set [2] (setting [3]) is listed as −0.6^a kcal/mol. Further, in data set [2] (setting [4]), the Tm is 55 °C, the “ΔG°37” value is -2.2 ± 0.1 kcal/mol, the “ΔH°” value is -40.5 ± 0.9 kcal/mol and the “ΔS°” value was −123.3 ± 3.1 cal/K · mol.

Turning to `[H]/N=C(/N)N[C@H]1[C@H](O)[C@@H](O)[C@H](O[C@@H]2O[C@@H](C)[C@](O)(C=O)[C@H]2O[C@@H]2O[C@@H](CO)[C@H](O)[C@@H](O)[C@@H]2NC)[C@@H](N/C(N)=N\[H])[C@@H]1O` [Streptomycin, reference compound], the “GFP translation with positive control” value in data set [1] (300 μM) is given as “no GFP translation was observed”.

As for “DIRTQRE [compound 18, 7-mer peptide selected by phage display against helix 31 RNA]”, the “inhibitory effect on coupled” value in data set [1] is recorded as “did not inhibit transcription or translation even up to 2 mM; also recorded: least inhibitory effect”.

Take “ECh31WT: doubly modified (m2G966, m5C967) h31 analogue, wild-type sequence of E. coli 16S rRNA helix 31 (GUUCGAUGCAACGCGAAC; RNA, [m2G] at 8, [5mC] at 9, all phosphodiester, methylation of C not given here)”: the “ΔG° 50” value in data set [2] (setting [3]) is listed as −0.5^a kcal/mol. Moreover, in data set [2] (setting [6]), the Tm came out at 54.7 °C, the “ΔG°37” value was -2.13 ± 0.03 kcal/mol, the “ΔH°” value is -39.37 ± 1.2 kcal/mol and the “ΔS°” value is listed as −120.08 ± 3.8 cal/K · mol. In data set [2] (setting [4]), the Tm worked out at 56 °C, the “ΔG°37” value was -2.1 ± 0.1 kcal/mol, the “ΔH°” value is -37.5 ± 2.2 kcal/mol and the “ΔS°” value was −114.4 ± 5.8 cal/K · mol. Besides, in data set [2] (setting [5]), the Tm was found to be 55.5 °C, the “ΔG°37” value was -2.10 ± 0.07 kcal/mol, the “ΔH°” value was -37.26 ± 1.2 kcal/mol and the “ΔS°” value is reported as −113.37 ± 3.6 cal/K · mol.

As for “HSh31UNMOD: unmodified human helix 31 RNA analogue with additional G-C base-pair (GUUUGACUCAACACGGGC; unmodified RNA)”, in data set [2] (setting [5]), the Tm is 44 °C, the “ΔG°37” value is -0.6 kcal/mol, the “ΔH°” value is -29.4 ± 1.6 kcal/mol and the “ΔS°” value is listed as −92.8 ± 5.4 cal/K · mol.

Source of the values: patent US8362203B2, “Non-natural peptides as models for the development of antibiotics” (priority 2009, dated 2013).
